Like-named read-outs stand apart in the source and are kept apart here.
Columns and labels:
[1] = system: P. aeruginosa PAO1; experiment: Fixed-concentration (0.25× MIC bolalipid) synergy broth microdilution; assay type: cell-based, Pseudomonas aeruginosa; settings: for MIC: Pseudomonas aeruginosa, PAO1, P. aeruginosa PAO1, read-out: MIC of aminoglycoside; for MIC of antibiotic: P. aeruginosa PAO1
[2] = system: E. coli NCTC 12923; experiment: as above; assay type: cell-based; settings: Escherichia coli, NCTC12923, E. coli NCTC 12923, read-out: MIC of aminoglycoside
[3] = system: A. baumannii ATCC 17978; experiment: G. mellonella burn wound infection model; assay type: in vivo, Galleria mellonella; settings: alone
From the text: In addition to the intrahemocoelic infection/therapy models described above, a recently described G. mellonella burn wound model was adopted ([37]). The burn was created using the flat head of a nail, which was heated in a blue Bunsen burner flame until red hot, cooled for 15 s, and superficially applied for 2 s to generate a 2-mm^2 burn. Larvae were then infected with a single colony of A. baumannii ATCC 17978 applied directly to the burn site, or sterile phosphate-buffered saline was applied as a control. Treatment was applied topically 1 h after infection in a volume of 5 μL. Survival was monitored over 96 h.

[4] = system: A. baumannii ATCC 17978; experiment: Fixed-concentration (0.25× MIC bolalipid) synergy broth microdilution; assay type: cell-based; settings: Acinetobacter baumannii, ATCC17978, A. baumannii ATCC 17978, read-out: MIC of aminoglycoside
[5] = system: K. pneumoniae M6; experiment: as above; assay type: cell-based; settings: Klebsiella pneumoniae
[6] = system: K. pneumoniae NCTC 13368; experiment: as above; assay type: cell-based, Klebsiella pneumoniae; settings: for MIC of aminoglycoside: K. pneumoniae NCTC 13368; for MIC: Klebsiella pneumoniae
[7] = system: P. aeruginosa NCTC 13437; experiment: as above; assay type: cell-based, Pseudomonas aeruginosa; settings: for MIC: Pseudomonas aeruginosa, NCTC13437, P. aeruginosa NCTC 13437, read-out: MIC of aminoglycoside; for MIC of antibiotic: P. aeruginosa NCTC 13437
[8] = system: A. baumannii AYE; experiment: as above; assay type: cell-based; settings: Acinetobacter baumannii
[9] = system: EMRSA-15; assay type: in vivo, Galleria mellonella
[10] = system: Ac. pleuropneumoniae 2331; experiment: Checkerboard synergy assay (BHI, 5% FBS, 0.01% NAD); assay type: cell-based, Actinobacillus pleuropneumoniae
[11] = system: Ac. pleuropneumoniae 3370; experiment: as above; assay type: cell-based, Actinobacillus pleuropneumoniae
[12] = system: Ac. pleuropneumoniae Shope; experiment: as above; assay type: cell-based, Actinobacillus pleuropneumoniae
[13] = system: Ac. pleuropneumoniae 2356; experiment: as above; assay type: cell-based, Actinobacillus pleuropneumoniae
[14] = system: Pseudomonas aeruginosa RP73; experiment: In vitro pharmacodynamic (PD) assay; settings: P. aeruginosa RP73; combination 2:1 (wt/wt)
Description: In vitro PD assays were performed with Pseudomonas aeruginosa RP73 cultured in Roswell Park Memorial Institute 1640 medium (RPMI) supplemented with 5% Mueller-Hinton broth (MHB) ([35]). Bacteria were cultured overnight in 10 mL of RPMI–5% MHB at 37°C and diluted just prior to plate inoculation to an OD600 of 0.002. Stock solutions of colistin or tobramycin were prepared in sterile MilliQ water at a concentration of 200× MIC. Octa-bola was prepared in methanol at 2,000× MIC and diluted in water to 200× MIC. A dilution series was made in the top row of a polypropylene 96-well plate from 200× MIC to 0.2× MIC in a volume of 100 μL, to which 100 μL of the bacterial suspension was added to have a total of 1 × 10^6 log-phase CFU in 200 μL. The first time zero sample was taken <30 s after addition of bacteria to the plate, with further samples taken at appropriate intervals thereafter. […] Fifteen microliters was removed from each well, diluted 1:1,000 in phosphate-buffered saline, and plated onto RPMI–5% MH agar plates. The plates were incubated at 37°C overnight for CFU counting.
CFU data were log10 transformed, and the bacterial net growth rate was determined from the increase or decrease in CFU during the time of exposure to the antibiotics as the coefficient of a linear regression of log10 CFU as a function of time. The intercept of the regression was fixed by forcing the regression lines through the first CFU measurement (0 min) at a given antimicrobial concentration. The pharmacodynamic function according to Regoes et al. ([36]) describes the relationship between bacterial net growth rate (ψ) and the concentration of an antimicrobial (a): ψmax − ([ψmax − ψmin][a/zMIC])^κ/([a/zMIC]^κ − [ψmin/ψmax]). Fitting this function to the net bacterial growth rates in OriginPro 2020 (OriginLab Corporation, Northampton, MA) generates the parameters ψmin and ψmax (minimum and maximum growth rates, respectively), zMIC (the pharmacodynamic MIC), and κ (a measure of the cooperativity). […]

[15] = in the presence of 0.25× MIC Octa-Bola
[16] = in the presence of 0.25× MIC Octa-C6
[17] = in the presence of 0.25× MIC Octa-C10
[18] = No bola, read-out: MIC of aminoglycoside
[19] = in the presence of 0.25× MIC Octa-Bola, read-out: MIC of aminoglycoside
[20] = in the presence of 0.25× MIC Octa-C6, read-out: MIC of aminoglycoside
[21] = in the presence of 0.25× MIC Octa-C10, read-out: MIC of aminoglycoside
[22] = in the presence of 0.25× MIC Octa-C10 (Table S1)
[23] = in the presence of 0.25× MIC Octa-bola (Table S1)

CNC(C)C1CCC(N)C(OC2C(N)CC(N)C(OC3OCC(C)(O)C(NC)C3O)C2O)O1 (centres unmarked) [Gentamicin] was tested, and the MIC ([1]; No bola) was 2 µg/mL, the MIC [1, 15] was 0.5 µg/mL and the MIC [1, 16] was 0.25 µg/mL. The MIC [1, 17] was 0.25 µg/mL, the MIC ([2]; No bola) was 2 µg/mL and the MIC [2, 15] was 2 µg/mL. For the same compound, the MIC [2, 16] was 2 µg/mL, the MIC [2, 17] was 1 µg/mL and the larvae rescued ([3]; 5 mg/kg topical, 96 h) was 76%. The protection ([3]; lower doses (2.5 and 1.25 mg/kg)) was “ineffective”, the MIC ([4]; No bola) was 2 µg/mL and the MIC [4, 15] was 0.25 µg/mL. It also gave an MIC [4, 16] of 1 µg/mL, an MIC [4, 17] of 1 µg/mL and an MIC [5, 18] of 1 µg/mL. It also gave an MIC [5, 19] of 1 µg/mL, an MIC [5, 20] of 1 µg/mL and an MIC [5, 21] of 1 µg/mL. For the same compound, the MIC of aminoglycoside [6, 16] was 16 µg/mL, the MIC of aminoglycoside [6, 17] was 16 µg/mL and the MIC ([6]; NCTC13368, K. pneumoniae NCTC 13368, in the presence of 0.25× MIC Octa-Bola, read-out: MIC of aminoglycoside) was 8 µg/mL. The MIC ([6]; NCTC13368, read-out: MIC of aminoglycoside) was 16 µg/mL, the MIC ([7]; No bola) was 256 µg/mL and the MIC [7, 15] was 8 µg/mL. For the same compound, the MIC [7, 16] was 8 µg/mL, the MIC [7, 17] was 8 µg/mL and the MIC [8, 18] was 256 µg/mL. The MIC [8, 19] was 0.5 µg/mL, the MIC [8, 20] was 32 µg/mL and the MIC [8, 21] was 4 µg/mL.
CN[C@H](CC(C)C)C(=O)N[C@H]1C(=O)N[C@@H](CC(N)=O)C(=O)N[C@H]2C(=O)N[C@H]3C(=O)N[C@H](C(=O)N[C@H](C(=O)O)c4cc(O)cc(O)c4-c4cc3ccc4O)[C@H](O)c3ccc(c(Cl)c3)Oc3cc2cc(c3O[C@@H]2O[C@H](CO)[C@@H](O)[C@H](O)[C@H]2O[C@H]2C[C@](C)(N)[C@H](O)[C@H](C)O2)Oc2ccc(cc2Cl)[C@H]1O [Vancomycin, reference compound] was tested, and the infected larvae rescued ([9]; 50 mg/kg, single injection 2 h postinfection) was ~80% and the infected larvae rescued ([9]; a tenth of 50 mg/kg dose) was 45%.
CCN1CCN(c2cc3c(cc2F)c(=O)c(C(=O)O)cn3C2CC2)CC1 [enrofloxacin, reference compound] was tested, and the “MIC alone Antibiotic” value ([10]; Octa-C10/enrofloxacin) was 0.125 µg/mL, the “MIC alone Antibiotic” value ([11]; Octa-C10/enrofloxacin) was 0.125 µg/mL and the “MIC alone Antibiotic” value ([12]; Octa-C10/enrofloxacin) was 0.125 µg/mL. The “MIC alone Antibiotic” value ([13]; Octa-C10/enrofloxacin) was 0.125 µg/mL.
For [H]/N=C(/N)N[C@H]1[C@H](O)[C@@H](O)[C@H](O[C@@H]2O[C@@H](C)[C@](O)(C=O)[C@H]2O[C@@H]2O[C@@H](CO)[C@H](O)[C@@H](O)[C@@H]2NC)[C@@H](N/C(N)=N\[H])[C@@H]1O [streptomycin, reference compound], the “MIC alone Antibiotic” value ([10]; Octa-C10/streptomycin) was 32 µg/mL, the “MIC alone Antibiotic” value ([11]; Octa-C10/streptomycin) was 16 to 64 µg/mL and the “MIC alone Antibiotic” value ([12]; Octa-C10/streptomycin) was 32 to 64 µg/mL. The “MIC alone Antibiotic” value ([13]; Octa-C10/streptomycin) was 64 µg/mL.
Colistin showed an MIC of antibiotic ([1]; No bola (Table S1)) of 0.125 to 0.25 µg/mL, an MIC of antibiotic [1, 22] of 0.06 µg/mL and an MIC of antibiotic [1, 23] of 0.06 µg/mL. The “bactericidal activity (minimum growth rate, ψmin)” value [14] was “weakly bactericidal”, the MIC of antibiotic ([7]; No bola (Table S1)) was 0.25 to 0.5 µg/mL and the MIC of antibiotic [7, 22] was 0.125 to 0.25 µg/mL. It also gave an MIC of antibiotic [7, 23] of 0.125 µg/mL.

— publication PMC9942557, “Bolaamphiphile Analogues of 12-bis-THA Cl2 Are Potent Antimicrobial Therapeutics with Distinct Mechanisms of Action against Bacterial, Mycobacterial, and Fungal Pathogens” (mSphere, 2022)
